Each compound was assayed against T1, Retinoid isomerohydrolase (Human, UniProt Q16518) (assay: In Vitro Isomerase Inhibition Assay).
T1 sequence (Q16518 whole entry): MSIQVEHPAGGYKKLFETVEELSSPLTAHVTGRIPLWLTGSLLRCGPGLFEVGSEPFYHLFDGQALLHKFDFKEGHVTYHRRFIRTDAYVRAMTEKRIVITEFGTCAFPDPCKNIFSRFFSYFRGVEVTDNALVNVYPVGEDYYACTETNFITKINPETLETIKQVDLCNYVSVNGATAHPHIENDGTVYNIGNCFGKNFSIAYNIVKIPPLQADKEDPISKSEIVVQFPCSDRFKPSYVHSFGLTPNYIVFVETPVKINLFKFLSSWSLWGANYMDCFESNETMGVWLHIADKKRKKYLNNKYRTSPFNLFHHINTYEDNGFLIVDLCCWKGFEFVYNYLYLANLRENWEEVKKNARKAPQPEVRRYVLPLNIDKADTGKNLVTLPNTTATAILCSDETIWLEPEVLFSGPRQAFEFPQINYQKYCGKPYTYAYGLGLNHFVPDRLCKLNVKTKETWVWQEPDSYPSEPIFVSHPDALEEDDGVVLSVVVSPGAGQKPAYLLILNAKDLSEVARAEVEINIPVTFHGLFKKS

Row | IC50 | Structure (SMILES)
1 | in the range around 55 nM | CC(C)CCOc1cccc(C(O)CCN)c1 (stereo not given) [US10188615, Example 107]
2 | in the range around 550 nM | CCC(CC)COc1cccc(O[C@H](C)CN)c1 [US10188615, Example 50]
3 | in the range around 550 nM | NCCCc1cccc(OCC2CCCCO2)c1 (stereo not given) [US10188615, Example 162]
4 | in the range around 5500 nM | NCCCCc1cccc(OCC2CCCCC2)c1 [US10188615, Example 184]
5 | in the range around 55 nM | NCCCc1cccc(OC[C@@H]2CCCC[C@H]2O)c1 (relative stereo) [US10188615, Example 148]
6 | in the range around 55 nM | CCCC(CCC)COc1cccc(C[C@H](O)CN)c1 [US10188615, Example 67]
7 | in the range around 550 nM | NCCCc1cccc(OCCOCc2ccccc2)c1 [US10188615, Example 102]
8 | in the range around 550 nM | CCC(CC)COc1cccc(O[C@@H](C)CN)c1 [US10188615, Example 62]
9 | in the range around 55 nM | CC(C)C(O)COc1cccc(C(O)CCN)c1 (stereo not given) [US10188615, Example 158]
10 | in the range around 5500 nM | Cc1cccc(C)c1COc1cccc(CCCN)c1 [US10188615, Example 137]
11 | in the range around 5500 nM | NCCC(O)c1cccc(OCCO)c1 (stereo not given) [US10188615, Example 109]
12 | in the range around 55 nM | CCCC(O)COc1cccc(C(O)CCN)c1 (stereo not given) [US10188615, Example 163]
13 | in the range around 550 nM | CC(C)C(O)COc1cccc(OCCN)c1 (stereo not given) [US10188615, Example 153]
14 | in the range around 550 nM | CC(C)C(O)COc1cccc(CCCN)c1 (stereo not given) [US10188615, Example 152]
15 | in the range around 550 nM | COCCOc1cccc(C(O)CCN)c1 (stereo not given) [US10188615, Example 86]
16 | in the range around 55 nM | CCCC(CCC)COc1cccc(C[C@@H](O)CN)c1 [US10188615, Example 68]
17 | in the range around 550 nM | NCCCc1cccc(OCCCCCO)c1 [US10188615, Example 151]
18 | in the range around 550 nM | COc1ccccc1COc1cccc(CCCN)c1 [US10188615, Example 38]
19 | in the range around 55 nM | CCC(CC)COc1cccc(C[C@@H](O)CN)c1 [US10188615, Example 69]
20 | in the range around 550 nM | CCCCCOc1cccc(CCCN)c1 [US10188615, Example 44]

The next lines start with the compound.

Row | Structure (SMILES) | IC50
21 | COc1ccccc1COc1cccc(OCCN)c1 [US10188615, Example 101] | in the range around 550 nM
22 | NCCC(O)c1cccc(OCC2CC2)c1 (stereo not given) [US10188615, Example 71] | in the range around 55 nM
23 | COCCOc1cccc(OCCN)c1 [US10188615, Example 113] | in the range around 5500 nM
24 | NCCOc1cccc(OCC2CCCCCCC2)c1 [US10188615, Example 93] | in the range around 55 nM
25 | NCCOc1cccc(OCC2CCC2)c1 [US10188615, Example 58] | in the range around 550 nM
26 | C[C@@H](CN)Oc1cccc(OCC2CCCCC2)c1 [US10188615, Example 65] | in the range around 550 nM
27 | NCCC(O)c1cccc(OCc2c(Cl)cccc2Cl)c1 (stereo not given) [US10188615, Example 105] | in the range around 55 nM
28 | NCCOc1cccc(OCCCC(N)=O)c1 [US10188615, Example 144] | in the range around 5500 nM
29 | CCC(O)(CC)COc1cccc(OCCN)c1 [US10188615, Example 31] | in the range around 550 nM
30 | NCCOc1cccc(OCC2(O)CCCCCC2)c1 [US10188615, Example 18] | in the range around 550 nM
31 | NCCC(O)c1cccc(OCCCC(N)=O)c1 (stereo not given) [US10188615, Example 149] | in the range around 5500 nM
32 | NCCCc1cc(CO)cc(OCC2CCCCC2)c1 [US10188615, Example 142] | in the range around 5500 nM
33 | COCCCCOc1cccc(OCCN)c1 [US10188615, Example 82] | in the range around 550 nM
34 | CC(CCN)c1cccc(OCC2CCCCC2)c1 (stereo not given) [US10188615, Example 81] | in the range around 55 nM
35 | Cc1cc(OCCN)cc(OCC2CCCCC2)c1 [US10188615, Example 154] | in the range around 55 nM
36 | CCCCCOc1cccc(OCCN)c1 [US10188615, Example 90] | in the range around 55 nM
37 | CNCCC(O)c1cccc(OCC2CCCCC2)c1 (stereo not given) [US10188615, Example 187] | in the range around 55 nM
38 | CNC(=O)CCCOc1cccc(OCCN)c1 [US10188615, Example 133] | in the range around 5500 nM

Row | Structure (SMILES) | IC50
39 | NCCC(F)c1cccc(OCC2CCCCC2)c1 (stereo not given) [US10188615, Example 193] | in the range around 55 nM
40 | NCCC#Cc1cccc(OCC2CCCCC2)c1 [US10188615, Example 196] | in the range around 5500 nM
41 | Cc1cccc(C)c1COc1cccc(OCCN)c1 [US10188615, Example 140] | in the range around 550 nM
42 | NC[C@@H](O)[C@@H](O)c1cccc(OCC2CCCCC2)c1 [US10188615, Example 180] | in the range around 55 nM
43 | NCCOc1cccc(OCc2ccccc2)c1 [US10188615, Example 8] | in the range around 550 nM
44 | CC(=O)O[C@@H]1CCCC[C@H]1COc1cccc([C@H](O)CCN)c1 [US10188615, Example 173] | in the range around 55 nM
45 | NCCC(O)c1cccc(OCCCOCc2ccccc2)c1 (stereo not given) [US10188615, Example 131] | in the range around 55 nM
46 | NCC/C(=N\N)c1cccc(OCC2CCCCC2)c1 [US10188615, Example 126] | in the range around 550 nM
47 | NCCOc1cccc(OCCCO)c1 [US10188615, Example 95] | in the range around 5500 nM
48 | N=C(N)NCc1cccc(OCC2CCCCC2)c1 [US10188615, Example 190] | in the range around 5500 nM
49 | COc1ccccc1COc1cccc(C(O)CCN)c1 (stereo not given) [US10188615, Example 92] | in the range around 55 nM
50 | NCC[S+]([O-])c1cccc(OCC2CCCCC2)c1 (stereo not given) [US10188615, Example 124] | in the range around 550 nM
51 | NCC(O)c1cccc(OCC2CCCCC2)c1 (stereo not given) [US10188615, Example 127] | in the range around 550 nM
52 | NCCOc1cccc(OCCCCOCc2ccccc2)c1 [US10188615, Example 100] | in the range around 5500 nM
53 | NCCC(O)(CO)c1cccc(OCC2CCCCC2)c1 (stereo not given) [US10188615, Example 79] | in the range around 5500 nM
54 | C=C(CCN)c1cccc(OCC2CCCCC2)c1 [US10188615, Example 78] | in the range around 550 nM
55 | C[C@H](CN)Oc1cccc(OCC2CCCC2)c1 [US10188615, Example 52] | in the range around 550 nM
